According to US11279733B2, “Peptide antibiotics” (priority 2017, dated 2022):
In brackets after ≈: the same amount, converted by molar mass. Positions of bridges follow the written chain, without caps; N, C: chain ends. Non-standard residues stand in square brackets, D forms with d. Residues, ends and D or L forms follow the SMILES beside them. *: point of attachment. Decanoyl(3R-OH) = CCCCCCC[C@@H](O)CC(=O)*; Heptanoyl(6-Me) = CC(C)CCCCC(=O)*; dDab = NCC[C@@H](N)C(=O)O; Nle = CCCC[C@H](N)C(=O)O; dDap = NC[C@@H](N)C(=O)O; Dab = NCC[C@H](N)C(=O)O; Nva = CCC[C@H](N)C(=O)O; Abu = CC[C@H](N)C(=O)O

Tests used:
[1] = system: P. aeruginosa GN_105, PmxR; conditions: GN 105, PmxR
Outline: (§1)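 Mid-log cultures grown in Mueller Hinton broth at 37° C were tested by 2-fold broth microdilution at 5×10^5 CFU/mL final. Compounds were dissolved in water and tested over a final range of 32 to 0.015 μg/mL.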

[2] = system: K. pneumoniae GN_102 PmxR; conditions: GN 102 PmxR
Outline: as §1

[3] = system: K. pneumoniae ATCC BAA-2146, NDM-1 pos; conditions: ATCC BAA-2146
Outline: as §1

[4] = system: P. aeruginosa GN_043, PmxR; conditions: P. aeruginosa GN_043, PmxR
Outline: as §1

[5] = system: P. aeruginosa ATCC 27853; conditions: ATCC 27853
Outline: as §1

[6] = system: A. baumannii GN_093 PmxR; conditions: GN 093 PmxR
Outline: as §1

[7] = system: K. pneumoniae ATCC 13883; conditions: ATCC 13883
Outline: as §1

[8] = system: A. baumannii ATCC 19606; conditions: ATCC 19606
Outline: as §1

[9] = system: K. pneumoniae GN_106, PmxR; conditions: GN 106, PmxR
Outline: as §1

[10] = system: K. pneumoniae ATCC 700603, MDR; conditions: ATCC 700603
Outline: as §1

[11] = system: E. coli ATCC 25922; conditions: ATCC 25922
Outline: as §1

[12] = in vitro; conditions: human
Procedure: Cytotoxicity of the synthesised peptides was evaluated by comparison with commercially available colistin (polymyxin E), polymyxin B (Sigma chemical Co., St. Louis, Mo., U.S.A.) and synthetic octapeptin C4 by conducting lactate dehydrogenase (LDH) assay. CC50 values calculated based on curve fitting of dose dependent inhibition of cell growth represented the cytotoxicity of the peptide. Human kidney 2 (HK2) cells were seeded as 2000 cells per well in a 384 well cell culture plate in a final volume of 20 μL in DMEM/F12 medium (Invitrogen #11330057), in which 10% of FBS was added. Cells were incubated for 24 hours at 37° C., 5% CO2 to allow cells to attach to the plates. Similar conditions were employed for HEK293 and HepG2 cytotoxicity assays.
Cytotoxicity to HEK293 and HepG2 cells was determined using the resazurin assay (McMillian, M. K.; Li, L.; Parker, J. B.; Patel, L.; Zhong, Z.; Gunnett, J. W.; Powers, W. J.; Johnson, M. D. An improved resazurin-based cytotoxicity assay for hepatic cells; Cell Biol. Toxicol. 2002, 18, 157-173; O'Brien, J.; Wilson, I.; Orton, T.; Pognan, F. Investigation of the Alamar Blue (resazurin) fluorescent dye for the assessment of mammalian cell cytotoxicity. Eur. J. Biochem. 2000, 267, 5421-5426). In brief, HEK293 and HepG2 cells were seeded at 4000 cells/well in black-wall, clear-bottom 384-well plates (Corning, Australia) and incubated for 24 h at 37° C., 5% CO2. Compounds were then added into each well. After 24 h incubation, 5 μM resazurin was added per well and incubated at 37° C. for 2 h. Fluorescence intensity was then read using a Polarstar Omega with excitation/emission 560/590. The data was then analyzed using GraphPad Prism 6 software. CC50 values were determined using GraphPad Prism 6 software (Inc. La Jolla, Calif.).

Structure (SMILES) | MIC P. aeruginosa GN_105, PmxR [1] [µg/mL] | MIC K. pneumoniae GN_102 PmxR [2] [µg/mL] | MIC K. pneumoniae ATCC BAA-2146, NDM-1 pos [3] [µg/mL] | MIC P. aeruginosa GN_043, PmxR [4] [µg/mL] | MIC P. aeruginosa ATCC 27853 [5] [µg/mL] | MIC A. baumannii GN_093 PmxR [6] [µg/mL] | MIC K. pneumoniae ATCC 13883 [7] [µg/mL] | MIC A. baumannii ATCC 19606 [8] [µg/mL] | MIC K. pneumoniae GN_106, PmxR [9] [µg/mL] | MIC K. pneumoniae ATCC 700603, MDR [10] [µg/mL] | MIC E. coli ATCC 25922 [11] [µg/mL] | CC50 at 24 h [12] [µM]
CCCCCCC[C@@H](O)CC(=O)N[C@H](CCN)C(=O)N[C@H]1CCNC(=O)[C@H](CC(C)C)NC(=O)[C@H](CCN)NC(=O)[C@H](CCN)NC(=O)[C@H]([C@@H](C)O)NC(=O)[C@@H](Cc2ccccc2)NC(=O)[C@H](CCN)NC1=O [compound 9289, 3(R)OH-nC9CO-D-Dab-cyc[L-Dab-L-Dab-D-Phe-L-Thr-L-Dab-L-Dab-L-Leu]] ({Decanoyl(3R-OH)}-[dDab][Dab][Dab][dF]T[Dab][Dab]L; lactam 2-C) | >32 | >32 | 2 (≈ 1.94 µM) | >32 | 1 (≈ 0.969 µM) | >32 | 2 (≈ 1.94 µM) | 2 (≈ 1.94 µM) | >32 | 1 (≈ 0.969 µM) | 2 (≈ 1.94 µM) | > 300
CC(C)CCCCC(=O)N[C@H](CCN)C(=O)N[C@H]1CCNC(=O)[C@H](CC(C)C)NC(=O)[C@H](CCN)NC(=O)[C@H](CCN)NC(=O)[C@H](CC(C)C)NC(=O)[C@@H](Cc2ccccc2)NC(=O)[C@H](CCN)NC1=O [compound 9290, 6Me-nC6CO-D-Dab-cyc[L-Dab-L-Dab-D-Phe-L-Leu-L-Dab-L-Dab-L-Leu]] ({Heptanoyl(6-Me)}-[dDab][Dab][Dab][dF]L[Dab][Dab]L; lactam 2-C) | 16 (≈ 16 µM) | 4 (≈ 4 µM) | 4 (≈ 4 µM) | 1 (≈ 1 µM) | 2 (≈ 2 µM) | 16 (≈ 16 µM) | 8 (≈ 8 µM) | 16 (≈ 16 µM) | 4 (≈ 4 µM) | 4 (≈ 4 µM) | 8 (≈ 8 µM) | > 300
CCCCCCC[C@@H](O)CC(=O)N[C@H](CN)C(=O)N[C@H]1CCNC(=O)[C@H](CC(C)C)NC(=O)[C@H](CCN)NC(=O)[C@H](CCN)NC(=O)[C@H](C(C)C)NC(=O)[C@@H](Cc2ccccc2)NC(=O)[C@H](CCN)NC1=O [compound 9291, 3(R)OH-nC9CO-D-Dap-cyc[L-Dab-L-Dab-D-Phe-L-Val-L-Dab-L-Dab-L-Leu]] ({Decanoyl(3R-OH)}-[dDap][Dab][Dab][dF]V[Dab][Dab]L; lactam 2-C) | 32 (≈ 31.5 µM) | 32 (≈ 31.5 µM) | 8 (≈ 7.87 µM) | 2 (≈ 1.97 µM) | 2 (≈ 1.97 µM) | 32 (≈ 31.5 µM) | 8 (≈ 7.87 µM) | >32 | 32 (≈ 31.5 µM) | 8 (≈ 7.87 µM) | 2 (≈ 1.97 µM) | > 300
CCCCCCC[C@@H](O)CC(=O)N[C@H](CN)C(=O)N[C@H]1CCNC(=O)[C@H](CC(C)C)NC(=O)[C@H](CCN)NC(=O)[C@H](CCN)NC(=O)[C@H](CC)NC(=O)[C@@H](Cc2ccccc2)NC(=O)[C@H](CCN)NC1=O [compound 9292, 3(R)OH-nC9CO-D-Dap-cyc[L-Dab-L-Dab-D-Phe-L-Abu-L-Dab-L-Dab-L-Leu]] ({Decanoyl(3R-OH)}-[dDap][Dab][Dab][dF][Abu][Dab][Dab]L; lactam 2-C) | 8 (≈ 7.98 µM) | 2 (≈ 2 µM) | 4 (≈ 3.99 µM) | 2 (≈ 2 µM) | 2 (≈ 2 µM) | 8 (≈ 7.98 µM) | 4 (≈ 3.99 µM) | 8 (≈ 7.98 µM) | 4 (≈ 3.99 µM) | 4 (≈ 3.99 µM) | 4 (≈ 3.99 µM) | > 300
CCCCCCC[C@@H](O)CC(=O)N[C@H](CN)C(=O)N[C@H]1CCNC(=O)[C@H](CC(C)C)NC(=O)[C@H](CCN)NC(=O)[C@H](CCN)NC(=O)[C@H](CCC)NC(=O)[C@@H](Cc2ccccc2)NC(=O)[C@H](CCN)NC1=O [compound 9293, 3(R)OH-nC9CO-D-Dap-cyc[L-Dab-L-Dab-D-Phe-L-NorVal-L-Dab-L-Dab-L-Leu]] ({Decanoyl(3R-OH)}-[dDap][Dab][Dab][dF][Nva][Dab][Dab]L; lactam 2-C) | 4 (≈ 3.94 µM) | 2 (≈ 1.97 µM) | 4 (≈ 3.94 µM) | 1 (≈ 0.984 µM) | 2 (≈ 1.97 µM) | 4 (≈ 3.94 µM) | 4 (≈ 3.94 µM) | 8 (≈ 7.87 µM) | 2 (≈ 1.97 µM) | 4 (≈ 3.94 µM) | 4 (≈ 3.94 µM) | > 300
CCCCCCC[C@@H](O)CC(=O)N[C@H](CN)C(=O)N[C@H]1CCNC(=O)[C@H](CC(C)C)NC(=O)[C@H](CCN)NC(=O)[C@H](CCN)NC(=O)[C@H](CCCC)NC(=O)[C@@H](Cc2ccccc2)NC(=O)[C@H](CCN)NC1=O [compound 9294, 3(R)OH-nC9CO-D-Dap-cyc[L-Dab-L-Dab-D-Phe-L-NorLeu-L-Dab-L-Dab-L-Leu]] ({Decanoyl(3R-OH)}-[dDap][Dab][Dab][dF][Nle][Dab][Dab]L; lactam 2-C) | 4 (≈ 3.88 µM) | 2 (≈ 1.94 µM) | 4 (≈ 3.88 µM) | 1 (≈ 0.971 µM) | 2 (≈ 1.94 µM) | 4 (≈ 3.88 µM) | 4 (≈ 3.88 µM) | 8 (≈ 7.76 µM) | 2 (≈ 1.94 µM) | 4 (≈ 3.88 µM) | 4 (≈ 3.88 µM) | 193
CCCCCCC[C@@H](O)CC(=O)N[C@H](CN)C(=O)N[C@H]1CCNC(=O)[C@H](CC(C)C)NC(=O)[C@H](CCN)NC(=O)[C@H](CCN)NC(=O)[C@H]([C@@H](C)O)NC(=O)[C@@H](Cc2ccccc2)NC(=O)[C@H](CCN)NC1=O [compound 9295, 3(R)OH-nC9CO-D-Dap-cyc[L-Dab-L-Dab-D-Phe-L-Thr-L-Dab-L-Dab-L-Leu]] ({Decanoyl(3R-OH)}-[dDap][Dab][Dab][dF]T[Dab][Dab]L; lactam 2-C) | 4 (≈ 3.93 µM) | 2 (≈ 1.96 µM) | 4 (≈ 3.93 µM) | 2 (≈ 1.96 µM) | 2 (≈ 1.96 µM) | 4 (≈ 3.93 µM) | 4 (≈ 3.93 µM) | 4 (≈ 3.93 µM) | 4 (≈ 3.93 µM) | 4 (≈ 3.93 µM) | 2 (≈ 1.96 µM) | > 300
